Experimental data published in US20180356397A1, “MIMICRY OF NEUROINFLAMMATORY MICROENVIRONMENTS AND METHODS OF USE AND MANUFACTURING THEREOF” (priority 2017, published 2018).

Experiments:
human primary microglial = assay: microfluidic chemotaxis platform for microglial motility under soluble A-beta gradient; assay type: cell-based; settings: soluble monomeric and oligomeric A-beta, picomolar to nanomolar concentrations
Excerpt: Activated microglia initially take on various morphologies: rounded, ramified shapes, rods to amoeboid forms followed by motile activation, which complicates the visual tracking of individual cells. Previous in vitro attempts to study rat microglial migration in the presence of short-lived damaged axons could not establish long-lasting gradients and could not conclusively differentiate slow accumulation of microglia from heterogeneous activation and random navigation. We developed a novel, microfluidic chemotaxis platform to study the motility of those microglia selectively responding to stimuli in a regulated manner. To understand the specific roles of A-beta in microglial accumulation in the context of AD, we generated a week-long lasting soluble A-beta gradient, patterned insoluble surface-bound A-beta to mimic A-beta signature in AD brains, and isolated human primary microglial responding to A-beta in our platforms. We tested 200 independent conditions in a single batch, while using real time imaging of process in an array of twenty-five formatted single well plate. […] We also observed discernable co-localization of microglia to the sites of insoluble A-beta, representing A-beta plaques.

[1] = tested on: neutrophils co-cultured with A-beta activated microglia; assay: neutrophil recruitment toward soluble A-beta activated microglia (co-culture in microfluidic device); assay type: cell-based, human; settings: for higher neutrophil migration in central chamber: soluble A-beta 2.2 uM, 6 hours; for recruiting of neutrophils in the recapitulated AD environment: microglia-derived chemokines by A-beta stimulation
Excerpt: Microglial cells are resident brain immune cells and stimulated by soluble A-beta42, which is a signature of human AD neurotoxic peptide. Based on our previous observation of neutrophil accumulation on A-beta plaques in in vivo, we hypothesize that A-beta activated microglial cells has a critical role in recruiting neutrophil. Stimulated microglial cells can release various types of chemokines and/or cytokines to increase inflammatory behavior or to clear A-beta in inflamed region. Furthermore, those secreted chemokines and/or cytokines can recruit other cell types including peripheral immune cells (FIG. 9A). To modulate this whole process, we established an in vitro AD brain-blood model (ADBBM) using microglia and neutrophil to mimic the brain microenvironment. To accommodate the different cells separately in a single microfluidic platform, we employed mechanically separated two chambers, which are connected through neutrophil specific migration channels (10×5×500 μm in width, height, and length) forming gradients of chemokines and/or cytokines (FIG. 9B).
Compared to a parallel configuration having equal surface areas for cell loading and cell collection, the asymmetric configuration of the current microfluidic device 10 has a small central cell collecting compartment (central chamber 30), which is smaller than a large annular cell loading compartment (annular chamber 50) by a factor of 3, 4, 5, 6, 7, 8, 9, 10 or greater. […] This enhances the gradient formation and detection of recruitment. The long and thin migration channels 60 can block spontaneous entrance of inactivated neutrophil through mechanical constraints. Using this platform, we could culture microglial cells for extended periods to accumulate enough soluble factors and could observe neutrophil signature movement at single cell resolution, in real-time. Red membrane dye stained microglial cells plated first in central chamber 30 and incubated for 3 days with soluble A-beta to modulate chemokine/cytokine enriched AD microenvironment. Freshly isolated neutrophil labeled with green membrane dye plated on annular chamber 50 and incubated under microscope to observe their movement and accumulation in central chamber 30. Precise numbers of neutrophils are reproducibly loaded and uniformly distributed in annular chamber 50 and this design allows us to evaluate the response of neutrophil to various types of chemokines and/or cytokines. We tested 200 independent conditions at the same time, by using real time imaging of process in an array of twenty-five formatted on a single well plate 140 or an array of one-hundred nineteen formatted single well plate 140 (FIG. 7 and FIG. 8).
To validate the dependency of neutrophil migration toward soluble A-beta activated microglia, microglial cells plated on central chamber 30 with various cell numbers (5,000, 10,000, 20,000 cells). Microglial cells are pre-labeled with membrane dye according to manufacturer's protocol to observe their morphology change. After 24 hour incubation of microglia alone, prepared soluble A-beta (2.2 uM) with reduced 1% FBS Prigrowlll media were changed to incubate further for 48 hours. After 48 hours, freshly isolated neutrophil labeled with green membrane dye plated on annular chamber 50 and incubated on microscopic real time imaging chamber. Neutrophil (green) migration could be observed toward soluble A-beta activated microglia (red) cultured central chamber 30 after 6 hours (FIG. 11A). 2.4-, 1.2-times higher neutrophil migration could be observed in central chamber 30 in response to 10,000 and 20,000 cultured microglia in central chamber 30 by showing the dependency of neutrophil recruitment in cell numbers. […] By utilizing high-resolution and spatiotemporal controlled microscopic imaging method, we also can quantify the persistent movement of microglial cells in various stimulations. […]

microglia = assay: A-beta stimulation of microglia and analysis of cytokine release / activation markers; assay type: cell-based, human
Excerpt: To characterize the phenotype changes in microglia induced by soluble A-beta, individual microglial cells were monitored for three days using time-lapse imaging microscopy. […] Morphological changes could be observed at 48 hrs following cell seeding (FIG. 9C bottom, +A-beta). As determined by image analysis, microglial cells became large and switched into more amoeboid type as the length and area of microglial somata (cell bodies) increased in all direction (FIG. 9C). And filopodia, which is observed in resting mode microglia, could not be observed in A-beta stimulated microglia. Furthermore, exposure of microglia to soluble A-beta induced up-regulation of microglial activation markers such as CD11b (FIGS. 9D and 9E) and CD68 (FIG. 9F). […] Membrane stained microglial cells (red) immunostained with anti-CD68 to observe activation of microglial cells with A-beta.
As microglia are the predominant resident immune cells of the brain, we next determined the effects of the soluble A-beta AD microenvironment on the inflammatory activity of microglia. Exposure to soluble A-beta was associated with significant increases in chemokine release (FIG. 9B).
(§1) Immortalized microglial cells (SV40-microglia) were purchased from Abm company (ABM Inc., Montreal, Canada). The cells were plated onto T25 cell culture flasks (BD Biosciences, San Jose, Calif., USA) and maintained in Prigrow III Medium (ABM Inc) supplemented with 50 mL FBS (Life Technologies) and 5 mL Pen/Strep (Invitrogen) in a CO2 cell culture incubator. Cell culture media were changed every 3 days until cells were confluent. For neutrophil isolation, human peripheral blood samples from healthy volunteers, aged 18 years and older, were purchased from InvivoGen. Peripheral blood was drawn in 10-ml tube containing a final concentration of 5 mM EDTA (Vacutainer; Becton Dickinson). Nucleated cells were isolated using a HetaSep gradient, followed by the EasySep Human Neutrophil Enrichment Kit (STEMCELL Technologies, Vancouver, Canada) according to the manufacturer's protocol.
For immunofluorescent stain, we rinsed the cells in medium twice with DPBS. To fix, cells were incubated in fresh 4% paraformaldehyde aqueous solution (157-4, ElectronMicroscopy Sciences) for more than 15 minutes at RT followed by rinsing twice with DPBS. To permeabilize, cells were incubated in 0.1% Triton X-100 in PBST (phosphate buffered saline with 0.1% tween®20) for 15 minutes at RT. To block, cells were incubated in 3% human serum albumin for overnight in PBST at 4° C. After incubating with the primary antibody solutions for 24 hour at 4° C., the cells were washed five times. The following antibody (and dilutions) were used: anti-cd11b (1:100, Life Technologies).
Microfluidic devices 10 were cultured for 72 hours, followed by incubation in A-beta containing medium with fetal bovine serum reduced from 10% to 1%. Microglia culture on central chamber 30 were stimulated with A-beta (Sigma Aldrich) at 2.2 uM with […] serum for 72 hrs. The cytokine release profile was assayed with the Human Cytokine 37-membrane kit array (R&D systems) and the resulting cytokine release profiles were quantified with ImageJ analysis.
FIG. 9. Activation of microglial inflammation with A-beta: chemokine release, morphogenesis, and marker expression. […] Both the membrane area (9D) and the amounts of expressed CD11b (9E) increase in the activated microglia with A-beta. ndevice=3, ncell=150. Scale bars: 30 μm. All parameters are presented as mean±SEM.

human neutrophils = assay: microfluidic chemotactic model for neutrophil migration (platform validation with fMLP); assay type: cell-based; settings: for neutrophils migrated back from chemoattractant / neutrophils migrated towards chemoattractant: persistence at 1 hour
Method: FIG. 10F. Neutrophil recruitment was quantified by comparing the fraction of cells inside the central chamber (CC) to the total number of cells in the corresponding angular chamber device (AC). The R.I. is calculated as R.I.=(CCDay i−CCDay 0)/ACDay i, where Day i is the number of cells in the central chamber and ADDay i is the number of cells in angular chamber. The recruitment index, R.I., is obtained by normalizing with the subtraction at ‘CCDay 0’ cell numbers.
We validated the assay by measuring the migration and accumulation of neutrophils toward a panel of known chemoattractant. To compare the effect of fMLP in various concentrations on neutrophil recruitment, we defined a neutrophil recruitment index, R.I. (FIG. 10B, FIG. 10F), representing the fraction of neutrophil recruited to the central chamber after loading fMLP in the central chamber. We compared the R.I. values under various soluble factors, (fMLP, A-beta, and media) (FIG. 10B) and could observe predominant neutrophil (green) recruitment with N-formyl-methionine-leucine-phenylalanine (fMLP) (10 nM) in central chamber 30 after 6 hours (FIG. 10A). A negligible number of cells entered central chamber in the absence of a chemoattractant by proving that the mechanical barrier 40 can exclude the spontaneous entrance of neutrophil. […] Neutrophils move through migration channels 60 at 18±5 μm/min and could reach central chamber in less than 30 min (FIG. 10G). We compared the migratory response of human neutrophils with various stimulators. […] Concentration-dependent changes in migration patterns in response to fMLP was primarily affect the migrating faction while there was no significant effect on persistent directionality.
as §1
After microglia loading, cells were recorded using time-lapse imaging using a fully automated Nikon TiE microscope with a heated incubator to 37° C. and 5% CO2 (10× magnification; Micro Device Instruments, Avon, Mass., USA). To achieve accurate cell tracking, the maximum time resolution of acquisition was 0.2 frames per second.
FIG. 10. Design and validation of a microfluidic chemotactic model for neutrophil migration. (10A) Neutrophils (green) instantly migrated along microchannels designed for neutrophils with a gradient of fMLP (10 nM) and accumulated in a central chamber, the source of fMLP. (10C) Time-lapse images show a simultaneous bi-directional migration of neurophils under the fMLP gradient on a single cellular level. The red arrows indicate persistent forward migration of neutrophils along the gradient of the chemoattractant and green arrows indicate the backward migration against the gradient. […] Combined data from n=5 independent experiments. Scale bars: (10A) 500 μm, (10C) 50 μm. Data represented as mean±SEM.

[2] = microglia exposed to soluble A-beta compared to microglia without A-beta

amyloid-beta [A-beta]
microglial chemoattraction (human primary microglial): acting as a microglial chemoattractant
higher neutrophil migration in central chamber ([1]; 10,000 microglia in central chamber): 2.4 times
higher neutrophil migration in central chamber ([1]; 20,000 microglia in central chamber): 1.2 times
neutrophil migration ([1]; A-beta alone, no microglia): Negligible neutrophil migration
persistence of neutrophil migration ([1]; co-culture with soluble A-beta activated microglial cells): about 92%
microglial activation markers CD11b and CD68 (microglia; exposure of microglia to soluble A-beta, immunostaining): up-regulation
secretion of anti-inflammatory markers (IL-1RA, IL-4, IL-10, TGF-β) (microglia; microglia exposed to soluble A-beta): very low or no detectable
CCL2 concentration increase (microglia; [2]): 1.4 fold
IL-6 concentration increase (microglia; [2]): 1.9 fold
IL-8 concentration increase (microglia; [2]): 2.3 fold
chemokine release of CCL3/4, CCL5 (microglia; [2]): new chemokine release

CCL2: microglia-derived chemokine released on A-beta stimulation
recruiting of neutrophils in the recapitulated AD environment [1]: effective for recruiting neutrophils

IL8: microglia-derived chemokine released on A-beta stimulation
recruiting of neutrophils in the recapitulated AD environment [1]: effective for recruiting neutrophils

N-formyl-methionine-leucine-phenylalanine [fMLP]
neutrophils migrated back from chemoattractant (human neutrophils; 1 nM fMLP): 17.8±2.8%
neutrophils migrated towards chemoattractant (human neutrophils; 1 nM fMLP): 82.2±3.4%
magnitude of cell recruitment (recruitment index), 10 nM compared to 1 nM (human neutrophils; 10 nM fMLP compared to 1 nM fMLP, central chamber, 6 hours): 1.6 times
neutrophils migrated back from chemoattractant (human neutrophils; 10 nM fMLP): 11.5±1.7%
neutrophils migrated towards chemoattractant (human neutrophils; 10 nM fMLP): 88.5±3.8%
time to plateau of neutrophil response (human neutrophils; fMLP in central chamber): ≤ 6 h
decrease in the total fraction of migrating cells (human neutrophils; increasing fMLP from 10 nM to 1 μM): 63%
speed of neutrophils moving through migration channels (human neutrophils; migrating towards fMLP): 18±5 μm/min
time to reach central chamber (human neutrophils; migrating towards fMLP): less than 30 min

B1: CCL5: microglia-derived chemokine released on A-beta stimulation (protein, UniProt P13501 24-91, looked up)
C-C motif chemokine 5: SPYSSDTTPCCFAYIARPLPRAHIKEYFYTSGKCSNPAVVFVTRKNRQVCANPEKKWVREYINSLEMS
recruiting of neutrophils in the recapitulated AD environment [1]: effective for recruiting neutrophils
